Results taken from paper PMC7195606 (Pharmacology, biochemistry, and behavior, 2020).

Columns and labels:
[1] = test system: C57Bl/6J mice; assay: Rectal; format: in vivo; conditions: for maximal decrease in temperature, females / maximal decrease in temperature, males / effect on body temperature / effect on body temperature, females / effect on body temperature, males: single IP injection; for effect on body temperature: males and females; for effect on body temperature / effect on body temperature, females / effect on body temperature, males: ambient 22-23 °C
[2] = lower doses (<10 mg/kg IP); ref not given; cited from earlier work
[3] = test system: C57Bl/6J mice; assay: Lethality; format: in vivo; conditions: 2 hr observation; for lethal effects: 20-160 mg/kg IP (MDPV up to 140 mg/kg)
[4] = ref Miner et al., 2017, cited from earlier work; for decrease in temperature after the first injection: first injection of a binge regimen
[5] = test system: C57Bl/6J mice; assay: Histological analysis of organs by hematoxylin-eosin staining; format: in vivo; conditions: at lethal doses
[6] = test system: C57Bl/6J mice; assay: Organ weights normalized to body weight; format: in vivo; conditions: 20-160 mg/kg IP, normalized according to body weight
[7] = ref Piao et al., 2015; cited from earlier work

C[C@H](N)C(=O)c1ccccc1 [CAT, cathinone]
time post injection with significant hypothermia vs baseline ([1]; females, 40 mg/kg IP): lasted the entire duration of the experiment | maximal decrease in temperature, females ([1]; females): ≈ 7 °C | time post injection with significant hypothermia vs baseline ([1]; males, 20 mg/kg IP): 20 min | time post injection with significant hypothermia vs baseline ([1]; males, 40 mg/kg IP): 20 min | time post injection with significant hypothermia vs baseline ([1]; males, 80 mg/kg IP): 20 min | maximal decrease in temperature, males ([1]; males): ≈ 5 °C | hyperthermia [2]: ≈ 1 °C | lethal effects [3]: no lethal effects at any dose

CCCC(C(=O)c1ccc2c(c1)OCO2)N1CCCC1 (stereo not shown) [MDPV, methylenedioxypyrovalerone]
time post injection with significant hypothermia vs baseline ([1]; females, 80 mg/kg IP): 20 min | time post injection with significant hypothermia vs baseline ([1]; females, 100 mg/kg IP): 20 min | time post injection with significant hypothermia vs baseline ([1]; females, 120 mg/kg IP): 20 min | maximal decrease in temperature, females ([1]; females): ≈ 2 °C | effect on body temperature [1]: significant hypothermic effects in both males and females | time post injection with significant hypothermia vs baseline ([1]; males, 80 mg/kg IP): did not identify any significant differences | time post injection with significant hypothermia vs baseline ([1]; males, 140 mg/kg IP): 20 min | maximal decrease in temperature, males ([1]; males): ≈ 2 °C | effects on temperature ([4]; 1 mg/kg IP): did not find effects | lethal effects [3]: no lethal effects at any dose

CN[C@@H](C)Cc1ccccc1 [MA, methamphetamine]
liver histology (hematoxylin-eosin) [5]: minor changes in cell morphology in the liver | effect on body temperature, females ([1]; females): no significant differences in temperature post-injection | timepoint of return of temperature to baseline ([1]; males, 40 mg/kg IP): ≤ 100 min | effect on body temperature, males ([1]; males): increased body temperature | normalized heart weight [6]: increased normalized heart weight in a dose dependent manner | normalized liver weight [6]: significantly increased normalized liver weight

CNC(C)C(=O)c1ccccc1 (stereo not shown) [MCAT, methcathinone]
time of peak hypothermic effect after injection ([1]; both males and females): 60 min | maximal decrease in temperature, females ([1]; females): ≈ 7 °C | effect on body temperature [1]: pronounced hypothermic effects | time post injection with significant hypothermia vs baseline ([1]; males, 20 mg/kg IP): 20 min | time post injection with significant hypothermia vs baseline ([1]; males, 80 mg/kg IP): failed to show significance | time post injection with significant hypothermia vs baseline ([1]; males, 120 mg/kg IP): did not identify an significant effects | time post injection with significant hypothermia vs baseline ([1]; males, 160 mg/kg IP): 60 min | maximal decrease in temperature, males ([1]; males): ≈ 3 °C | hyperthermia [2]: ≈ 1 °C | lethal effects [3]: this occurred at the highest dose and only in one subject

CNC(C)C(=O)c1ccc(C)cc1 (stereo not shown) [MMC, 4-methyl-methcathinone]
liver histology (hematoxylin-eosin) [5]: minor changes in cell morphology in the liver | maximal decrease in temperature, females ([1]; females): ≈ 6 °C | effect on body temperature, females ([1]; females): profound hypothermic effects | time post injection with significant hypothermia vs baseline ([1]; males, 20 mg/kg IP): 20 min | time post injection with significant hypothermia vs baseline ([1]; males, 120 mg/kg IP): 20 min | maximal decrease in temperature, males ([1]; males): ≈ 4 °C | effect on body temperature, males ([1]; males): greatest temperature decreases in males compared to the five other drugs | normalized heart weight [6]: increased normalized heart weight in a dose dependent manner | normalized liver weight [6]: significantly increased normalized liver weight

CNC(C)C(=O)c1ccc2c(c1)OCO2 (stereo not shown) [methylone]
decrease in temperature after the first injection [4]: 4 °C | LD50 compared with MA or MDMA [7]: slightly lower than that of MA or MDMA

CNC(C)Cc1ccc2c(c1)OCO2 (stereo not shown) [MDMA, 3,4-methylenedioxymethamphetamine]
liver histology (hematoxylin-eosin) [5]: minor changes in cell morphology in the liver | effect on body temperature, females ([1]; females): hypothermic effects | effect on body temperature, males ([1]; males): not significant at any dose | decrease in temperature after the first injection [4]: 3 °C | normalized heart weight [6]: increased normalized heart weight in a dose dependent manner | normalized liver weight [6]: did not significantly affect liver weight | LD50 as base ([3]; single IP injection, males and females pooled): 100.92 mg/kg
